Experimental data taken from publication PMC8776995 (Frontiers in Chemistry, 2022).
“And” between values parts separate entries of the source, which are not always exact repeats. Equal values may be shown once. Read-outs that look alike come from different tables or passages of the source.

Experiments:
A549 cells = experiment: CCK-8 antiproliferation assay, A549; settings: for Inhibitory efficacy: A549 cells
[1] = test system: AKT phosphorylation (S473) in PC-9 cells; experiment: Western blot, p-AKT/AKT in PC-9; settings: for p-AKT/AKT: band density ratio; for p-AKT/AKT relative to DMSO: ratio normalised to DMSO = 1
Protocol: We also performed western blot analysis to evaluate the impact of e4 and e12 on EGFR signaling in PC-9 and H460 cells.
H460 cells were seeded in six-well plates with serum-free medium overnight, and then treated complete medium containing 0.1% DMSO, various concentrations (0.1, 1 and 10 μM) of either compound e4 or e12 for 2 h, respectively. […] Then the H460 cells were treated with complete medium containing EGF (10 ng/ml) for 5 min. Then the cells were harvested and washed with PBS, centrifuged, resuspended in 100–200 μl of RIPA lysis buffer containing Protease and Phosphatase Inhibitor Cocktail (1X), and then centrifuged for 5 min at 12,000 rpm at 4°C. The supernatant was used for protein analysis. […] Then the membrane was washed 5 min (X3) and incubated at 1:3,000 dilution of anti-rabbit secondary antibodies or 1:1,000 dilution of anti-mouse secondary antibodies for 1 h at RT. After washing with TBST 5 min (X3), protein bands were developed by chemiluminescence. The protein levels were quantified by the gray values of the bands in the resulting images by ImageJ, and the control group was used as the standard. […] The PC-9 cells were harvested and analyzed as above.

[2] = test system: CCND1, CCNA2, CCNB1, CDK2, CDK6 RNA in PC-9 cells; experiment: qPCR assay for cell cycle-related gene analysis; type: cell-based, human; settings: for CCNB relative mRNA expression (2^-ddCt vs NC, normalised to beta-Actin) / CCND1 relative mRNA expression (2^-ddCt vs NC, normalised to beta-Actin) / CDK6 relative mRNA expression (2^-ddCt vs NC, normalised to beta-Actin): qPCR SYBR_GREEN, NC = 1; for RQ: endogenous control b-Actin, reference sample NC; for 2^ΔΔCт CCNA / 2^ΔΔCт CCNB / 2^ΔΔCт CCND1 / 2^ΔΔCт CDK2 / 2^ΔΔCт CDK6: Repeat 1-3, relative to NC = 1
Source text: To better understand the mechanisms underlying cell cycle arrest induced by e4 and e12 in NSCLC cells, we assessed the expression levels of a few genes involved in cell cycle regulation, including cyclin D1 (CCND1), cyclin A2 (CCNA2), cyclin B1 (CCNB1), cyclin-dependent kinase 2 (CDK2), and cyclin-dependent kinase 6 (CDK6) in PC-9 by qPCR. […] CCNA2 is known to bind and activate CDK2 and thus promotes the transition through G1/S and G2/M. CCNB1 and CCND1 are essential to mitosis and G1/S transition respectively. While G2/M arrest weas not detected, the changes in these gene expression profiles interpret the G1/S arrests in PC-9 cells treated with e4 and e12. PC-9 cells exposed to the compounds for various periods should be examined further.
Total RNA of cells was extracted and cDNA was synthesized. The primers for the target products were designed as in Table 3.

IC50 (A549 cells; Homo sapiens, A549, 48 h, read-out: IC50 (μM) A549, CCK-8, 48 h, average ± SD of three independent experiments): < 10 µM
IC50 (A549 cells; read-out: IC50 (μM) A549, CCK-8, 48 h, average ± SD of three independent experiments): 5.91 ± 0.73 µM
SMILES: COCCOc1cc2ncnc(Nc3cccc(-c4cn(-c5ccc(C)cc5)nn4)c3)c2cc1OCCOC [e12, [6,7-Bis-(2-methoxy-ethoxy)-quinazolin-4-yl]-[3-(1-p-tolyl-1H-[1,2,3]triazol-4-yl)-phenyl]-amine]
Inhibitory efficacy (A549 cells; 1uM, given as fraction, Repeat 1-3): 0.1461 and 0.1139
Inhibitory efficacy (A549 cells; 2uM, given as fraction, Repeat 1-3): 0.3261 and 0.1967
Inhibitory efficacy (A549 cells; 4uM, given as fraction, Repeat 1-3): 0.4378 and 0.3806
Inhibitory efficacy (A549 cells; 8uM, given as fraction, Repeat 1-3): 0.5646 and 0.5114
Inhibitory efficacy (A549 cells; 16uM, given as fraction, Repeat 1-3): 0.7887 and 0.7821
inhibition at 1 µM (A549 cells; Homo sapiens, A549, read-out: Inhibitory efficacy, A549 cells, 1uM, given as fraction, Repeat 1-3): 9.61%
inhibition at 2 µM (A549 cells; Homo sapiens, A549, read-out: Inhibitory efficacy, A549 cells, 2uM, given as fraction, Repeat 1-3): 26.8%
inhibition at 4 µM (A549 cells; Homo sapiens, A549, read-out: Inhibitory efficacy, A549 cells, 4uM, given as fraction, Repeat 1-3): 37.9%
inhibition at 8 µM (A549 cells; Homo sapiens, A549, read-out: Inhibitory efficacy, A549 cells, 8uM, given as fraction, Repeat 1-3): 51.9%
inhibition at 16 µM (A549 cells; Homo sapiens, A549, read-out: Inhibitory efficacy, A549 cells, 16uM, given as fraction, Repeat 1-3): 78.5%
p-AKT/AKT ([1]; PC-9, 0.1 uM): 0.5916
p-AKT/AKT relative to DMSO ([1]; PC-9, 0.1 uM): 0.5679
p-AKT/AKT ([1]; PC-9, 1 uM): 0.4098
p-AKT/AKT relative to DMSO ([1]; PC-9, 1 uM): 0.3934
p-AKT/AKT ([1]; PC-9, 10 uM): 0.7398
p-AKT/AKT relative to DMSO ([1]; PC-9, 10 uM): 0.7102
phosphorylation of AKT (western blot) ([1]; PC-9, especially at 10 μM): suppressed
CCNB relative mRNA expression (2^-ddCt vs NC, normalised to beta-Actin) ([2]; 4uM): 0.9828
CCND1 relative mRNA expression (2^-ddCt vs NC, normalised to beta-Actin) ([2]; 4uM): 0.7886
CDK6 relative mRNA expression (2^-ddCt vs NC, normalised to beta-Actin) ([2]; 4uM): 0.5928
CCNB relative mRNA expression (2^-ddCt vs NC, normalised to beta-Actin) ([2]; 8uM): 0.8452
CCND1 relative mRNA expression (2^-ddCt vs NC, normalised to beta-Actin) ([2]; 8uM): 0.7649
CDK6 relative mRNA expression (2^-ddCt vs NC, normalised to beta-Actin) ([2]; 8uM): 0.8101
CCNB relative mRNA expression (2^-ddCt vs NC, normalised to beta-Actin) ([2]; 12uM): 0.7825
CCND1 relative mRNA expression (2^-ddCt vs NC, normalised to beta-Actin) ([2]; 12uM): 0.6173
CDK6 relative mRNA expression (2^-ddCt vs NC, normalised to beta-Actin) ([2]; 12uM): 0.676
RQ ([2]; CCNA mRNA, 4uM): 0.8394
RQ ([2]; CCNA mRNA, 8uM): 0.6204
RQ ([2]; CCNA mRNA, 12uM): 0.7362
2^ΔΔCт CCNA ([2]; 4uM): 0.5435 and 0.6447 and 0.8394
2^ΔΔCт CCNA ([2]; 8uM): 0.582 and 0.5272 and 0.6204
2^ΔΔCт CCNA ([2]; 12uM): 0.5914 and 0.5472 and 0.7362
RQ ([2]; CCNB mRNA, 4uM): 1.03
RQ ([2]; CCNB mRNA, 8uM): 0.8431
RQ ([2]; CCNB mRNA, 12uM): 1.0421
2^ΔΔCт CCNB ([2]; 4uM): 0.9828 and 0.8732 and 1.03
2^ΔΔCт CCNB ([2]; 8uM): 0.8452 and 0.8244 and 0.8431
2^ΔΔCт CCNB ([2]; 12uM): 0.7825 and 0.7721 and 1.0421
2^ΔΔCт CCND1 ([2]; CCND1, 4uM): 0.7886 and 0.963 and 1.159
2^ΔΔCт CCND1 ([2]; CCND1, 8uM): 0.7649 and 0.9528 and 0.8372
2^ΔΔCт CCND1 ([2]; CCND1, 12uM): 0.6173 and 0.9545 and 0.694
RQ ([2]; CCND1 mRNA, 4uM): 1.159
RQ ([2]; CCND1 mRNA, 8uM): 0.8372
RQ ([2]; CCND1 mRNA, 12uM): 0.694
2^ΔΔCт CDK2 ([2]; CDK2, 4uM): 0.9262 and 1.002 and 1.127
2^ΔΔCт CDK2 ([2]; CDK2, 8uM): 0.848 and 1.034 and 0.9665
2^ΔΔCт CDK2 ([2]; CDK2, 12uM): 0.7751 and 1.0315 and 0.9502
RQ ([2]; CDK2 mRNA, 4uM): 1.127
RQ ([2]; CDK2 mRNA, 8uM): 0.9665
RQ ([2]; CDK2 mRNA, 12uM): 0.9502
2^ΔΔCт CDK6 ([2]; CDK6, 4uM): 0.5928 and 0.8604 and 0.9896
2^ΔΔCт CDK6 ([2]; CDK6, 8uM): 0.8101 and 1.1509 and 0.9153
2^ΔΔCт ([2]; CDK6, 8uM, normalized to WT (NC), run 20201020-2): 0.9153
2^ΔΔCт CDK6 ([2]; CDK6, 12uM): 0.676 and 1.27 and 0.9852
RQ ([2]; CDK6 mRNA, 4uM): 0.9896
RQ ([2]; CDK6 mRNA, 8uM): 0.9153
RQ ([2]; CDK6 mRNA, 12uM): 0.9852
